{
  "source": "patent US20260285850A1",
  "about": "“SUBSTITUTED OXAZOLIDINONES AND IMIDAZOLINONES AS HERBICIDES” (FMC CORPORATION, priority 2023, published 2026)",
  "assay_type_in_all_cases": "in vivo",
  "key": {"[1]": {"tested_on": "barnyardgrass (Echinochloa crus-galli)", "experiment": "Test A preemergence soil spray, visual injury rating 0-100", "conditions": "10 days", "method_in_brief": "(§1)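 Loam-sand pots got test material in surfactant-containing solvent, either as a directed soil spray before emergence or on plants at the one- to two-leaf stage. Visual injury (0-100) was read after ten greenhouse days.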"}, "[2]": {"tested_on": "blackgrass (Alopecurus myosuroides)", "experiment": "Test A preemergence soil spray, visual injury rating 0-100", "conditions": "10 days", "method_in_brief": "as §1"}, "corn (Zea mays) [3]": {"tested_on": "corn (Zea mays)", "experiment": "Test A preemergence soil spray, visual injury rating 0-100", "conditions": "10 days", "method_in_brief": "as §1"}, "[4]": {"tested_on": "green foxtail (Setaria viridis)", "experiment": "Test A preemergence soil spray, visual injury rating 0-100", "conditions": "10 days", "method_in_brief": "as §1"}, "kochia (Bassia scoparia) [5]": {"tested_on": "kochia (Bassia scoparia)", "experiment": "Test A preemergence soil spray, visual injury rating 0-100", "conditions": "10 days", "method_in_brief": "as §1"}, "[6]": {"tested_on": "oat, wild (wild oat, Avena fatua)", "experiment": "Test A preemergence soil spray, visual injury rating 0-100", "conditions": "10 days", "method_in_brief": "as §1"}, "[7]": {"tested_on": "palmer (palmer amaranth, palmer pigweed, Amaranthus palmeri)", "experiment": "Test A preemergence soil spray, visual injury rating 0-100", "conditions": "10 days", "method_in_brief": "as §1"}, "[8]": {"tested_on": "ragweed (common ragweed, Ambrosia artemisiifolia)", "experiment": "Test A preemergence soil spray, visual injury rating 0-100", "conditions": "10 days", "method_in_brief": "as §1"}, "[9]": {"tested_on": "ryegrass, Italian (italian ryegrass, Lolium multiflorum)", "experiment": "Test A preemergence soil spray, visual injury rating 0-100", "conditions": "10 days", "method_in_brief": "as §1"}, "soybean (Glycine max) [10]": {"tested_on": "soybean (Glycine max)", "experiment": "Test A preemergence soil spray, visual injury rating 0-100", "conditions": "10 days", "method_in_brief": "as §1"}, "[11]": {"tested_on": "wheat (Triticum aestivum)", "experiment": "Test A preemergence soil spray, visual injury rating 0-100", "conditions": "10 days", "method_in_brief": "as §1"}, "[12]": {"tested_on": "barnyardgrass (Echinochloa crus-galli)", "experiment": "Test A postemergence application, visual injury rating 0-100", "method_in_brief": "as §1"}, "[13]": {"tested_on": "blackgrass (Alopecurus myosuroides)", "experiment": "Test A postemergence application, visual injury rating 0-100", "method_in_brief": "as §1"}, "corn (Zea mays) [14]": {"tested_on": "corn (Zea mays)", "experiment": "Test A postemergence application, visual injury rating 0-100", "method_in_brief": "as §1"}, "[15]": {"tested_on": "green foxtail (Setaria viridis)", "experiment": "Test A postemergence application, visual injury rating 0-100", "method_in_brief": "as §1"}, "[16]": {"tested_on": "horseweed (Erigeron canadensis)", "experiment": "Test A postemergence application, visual injury rating 0-100", "method_in_brief": "as §1"}, "kochia (Bassia scoparia) [17]": {"tested_on": "kochia (Bassia scoparia)", "experiment": "Test A postemergence application, visual injury rating 0-100", "method_in_brief": "as §1"}, "[18]": {"tested_on": "oat, wild (wild oat, Avena fatua)", "experiment": "Test A postemergence application, visual injury rating 0-100", "method_in_brief": "as §1"}, "[19]": {"tested_on": "palmer (palmer amaranth, palmer pigweed, Amaranthus palmeri)", "experiment": "Test A postemergence application, visual injury rating 0-100", "method_in_brief": "as §1"}, "[20]": {"tested_on": "ragweed (common ragweed, Ambrosia artemisiifolia)", "experiment": "Test A postemergence application, visual injury rating 0-100", "method_in_brief": "as §1"}, "[21]": {"tested_on": "ryegrass, Italian (italian ryegrass, Lolium multiflorum)", "experiment": "Test A postemergence application, visual injury rating 0-100", "method_in_brief": "as §1"}, "soybean (Glycine max) [22]": {"tested_on": "soybean (Glycine max)", "experiment": "Test A postemergence application, visual injury rating 0-100", "method_in_brief": "as §1"}, "[23]": {"tested_on": "wheat (Triticum aestivum)", "experiment": "Test A postemergence application, visual injury rating 0-100", "method_in_brief": "as §1"}, "[24]": {"tested_on": "barnyardgrass (Echinochloa crusgalli)", "experiment": "Test B flooded paddy test, visual plant response rating 0-100", "conditions": "250 g ai/ha, Flood, applied to paddy water, evaluated after 13 days", "method_in_brief": "(§2)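 Visual evaluation after 13 days. Water-applied treatment, 3 cm flood depth held constant, plants at 2-leaf stage at treatment.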"}, "[25]": {"tested_on": "ducksalad (Heteranthera limosa)", "experiment": "Test B flooded paddy test, visual plant response rating 0-100", "conditions": "250 g ai/ha, Flood, applied to paddy water, evaluated after 13 days", "method_in_brief": "as §2"}, "rice (Oryza sativa)": {"tested_on": "rice (Oryza sativa)", "experiment": "Test B flooded paddy test, visual plant response rating 0-100", "conditions": "250 g ai/ha, Flood, applied to paddy water, evaluated after 13 days", "method_in_brief": "as §2"}, "[26]": {"tested_on": "sedge, umbrella (small-flower umbrella sedge, Cyperus difformis)", "experiment": "Test B flooded paddy test, visual plant response rating 0-100", "conditions": "250 g ai/ha, Flood, applied to paddy water, evaluated after 13 days", "method_in_brief": "as §2"}, "[27]": {"conditions": "62 g ai/ha, 0 = no effect, 100 = complete control"}, "[28]": {"conditions": "62 g ai/ha, postemergence, 10 days, 0 = no effect, 100 = complete control"}, "[29]": {"conditions": "Postemergence, 16 g ai/ha, greenhouse 10 days, 0 no effect, 100 complete control"}},
  "data": [
    {"smiles": "COC(=O)COC(=O)C1=CCC(NC(=O)C2(C)CN(c3cc(F)cc(F)c3)C(=O)O2)C1", "note": "(centres unmarked) [Compound 107]", "values": [
      {"measurement": "Barnyardgrass plant response rating", "setting": "[1]; 16 g ai/ha, 0 to 100 scale", "result": 0},
      {"measurement": "Barnyardgrass plant response rating (0-100)", "setting": "[1]; [27]", "result": 10},
      {"measurement": "Blackgrass plant response rating", "setting": "[2]; 16 g ai/ha, 0 to 100 scale", "result": 0},
      {"measurement": "Blackgrass plant response rating (0-100)", "setting": "[2]; [27]", "result": 0},
      {"measurement": "Corn plant response rating", "setting": "corn (Zea mays) [3]; 16 g ai/ha, 0 to 100 scale", "result": 0},
      {"measurement": "Corn plant response rating (0-100)", "setting": "corn (Zea mays) [3]; [27]", "result": 0},
      {"measurement": "Foxtail, Green plant response rating", "setting": "[4]; 16 g ai/ha, 0 to 100 scale", "result": 0},
      {"measurement": "Foxtail, Green plant response rating (0-100)", "setting": "[4]; [27]", "result": 0},
      {"measurement": "Kochia plant response rating", "setting": "kochia (Bassia scoparia) [5]; 16 g ai/ha, 0 to 100 scale", "result": 0},
      {"measurement": "Kochia plant response rating (0-100)", "setting": "kochia (Bassia scoparia) [5]; [27]", "result": 0},
      {"measurement": "Oat, Wild plant response rating", "setting": "[6]; 16 g ai/ha, 0 to 100 scale", "result": 0},
      {"measurement": "Oat, Wild plant response rating (0-100)", "setting": "[6]; [27]", "result": 0},
      {"measurement": "Pigweed, Palmer plant response rating", "setting": "[7]; 16 g ai/ha, 0 to 100 scale", "result": 0},
      {"measurement": "Pigweed, Palmer plant response rating (0-100)", "setting": "[7]; [27]", "result": 0},
      {"measurement": "Ragweed plant response rating", "setting": "[8]; 16 g ai/ha, 0 to 100 scale", "result": 0},
      {"measurement": "Ragweed plant response rating (0-100)", "setting": "[8]; [27]", "result": 0},
      {"measurement": "Ryegrass, Italian plant response rating", "setting": "[9]; 16 g ai/ha, 0 to 100 scale", "result": 10},
      {"measurement": "Ryegrass, Italian plant response rating (0-100)", "setting": "[9]; [27]", "result": 40},
      {"measurement": "Soybean plant response rating", "setting": "soybean (Glycine max) [10]; 16 g ai/ha, 0 to 100 scale", "result": 0},
      {"measurement": "Soybean plant response rating (0-100)", "setting": "soybean (Glycine max) [10]; [27]", "result": 0},
      {"measurement": "Wheat plant response rating", "setting": "[11]; 16 g ai/ha, 0 to 100 scale", "result": 0},
      {"measurement": "Wheat plant response rating (0-100)", "setting": "[11]; [27]", "result": 10},
      {"measurement": "Barnyardgrass plant response rating (0-100)", "setting": "[12]; [28]", "result": 80},
      {"measurement": "Barnyardgrass plant response rating (0 to 100 scale)", "setting": "[12]; [29]", "result": 0},
      {"measurement": "Blackgrass plant response rating (0-100)", "setting": "[13]; [28]", "result": 60},
      {"measurement": "Blackgrass plant response rating (0 to 100 scale)", "setting": "[13]; [29]", "result": 0},
      {"measurement": "Corn plant response rating (0-100)", "setting": "corn (Zea mays) [14]; [28]", "result": 100},
      {"measurement": "Corn plant response rating (0 to 100 scale)", "setting": "corn (Zea mays) [14]; [29]", "result": 0},
      {"measurement": "Foxtail, Green plant response rating (0-100)", "setting": "[15]; [28]", "result": 20},
      {"measurement": "Foxtail, Green plant response rating (0 to 100 scale)", "setting": "[15]; [29]", "result": 0},
      {"measurement": "Horseweed plant response rating (0-100)", "setting": "[16]; [28]", "result": 30},
      {"measurement": "Horseweed plant response rating (0 to 100 scale)", "setting": "[16]; [29]", "result": 0},
      {"measurement": "Kochia plant response rating (0-100)", "setting": "kochia (Bassia scoparia) [17]; [28]", "result": 10},
      {"measurement": "Kochia plant response rating (0 to 100 scale)", "setting": "kochia (Bassia scoparia) [17]; [29]", "result": 0},
      {"measurement": "Oat, Wild plant response rating (0-100)", "setting": "[18]; [28]", "result": 20},
      {"measurement": "Oat, Wild plant response rating (0 to 100 scale)", "setting": "[18]; [29]", "result": 0},
      {"measurement": "Pigweed, Palmer plant response rating (0-100)", "setting": "[19]; [28]", "result": 30},
      {"measurement": "Pigweed, Palmer plant response rating (0 to 100 scale)", "setting": "[19]; [29]", "result": 0},
      {"measurement": "Ragweed plant response rating (0-100)", "setting": "[20]; [28]", "result": 20},
      {"measurement": "Ragweed plant response rating (0 to 100 scale)", "setting": "[20]; [29]", "result": 0},
      {"measurement": "Ryegrass, Italian plant response rating (0-100)", "setting": "[21]; [28]", "result": 60},
      {"measurement": "Ryegrass, Italian plant response rating (0 to 100 scale)", "setting": "[21]; [29]", "result": 0},
      {"measurement": "Soybean plant response rating (0-100)", "setting": "soybean (Glycine max) [22]; [28]", "result": 40},
      {"measurement": "Soybean plant response rating (0 to 100 scale)", "setting": "soybean (Glycine max) [22]; [29]", "result": 0},
      {"measurement": "Wheat plant response rating (0-100)", "setting": "[23]; [28]", "result": 50},
      {"measurement": "Wheat plant response rating (0 to 100 scale)", "setting": "[23]; [29]", "result": 0},
      {"measurement": "Plant response rating, Barnyardgrass (0 to 100 scale, 0 is no effect and 100 is complete control)", "setting": "[24]", "result": 0},
      {"measurement": "Plant response rating, Ducksalad (0 to 100 scale, 0 is no effect and 100 is complete control)", "setting": "[25]", "result": 0},
      {"measurement": "Plant response rating, Rice (0 to 100 scale, 0 is no effect and 100 is complete control)", "setting": "rice (Oryza sativa)", "result": 0},
      {"measurement": "Plant response rating, Sedge, Umbrella (0 to 100 scale, 0 is no effect and 100 is complete control)", "setting": "[26]", "result": 0}
    ]}
  ]
}
